Data set [1] has as its target T1, Calpain-2 catalytic subunit (Sus scrofa, UniProt P43367).
T1 sequence (P43367 whole entry): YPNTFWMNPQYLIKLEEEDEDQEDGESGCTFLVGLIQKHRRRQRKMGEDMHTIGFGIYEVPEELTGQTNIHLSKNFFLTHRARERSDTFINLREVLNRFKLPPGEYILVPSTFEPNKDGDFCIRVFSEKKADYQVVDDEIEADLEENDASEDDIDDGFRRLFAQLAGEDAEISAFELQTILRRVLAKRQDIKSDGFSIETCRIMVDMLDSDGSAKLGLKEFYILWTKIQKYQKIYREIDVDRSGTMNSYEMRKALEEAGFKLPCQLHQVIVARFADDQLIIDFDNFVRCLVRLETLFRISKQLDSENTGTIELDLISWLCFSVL
The data set is described as follows: m-calpain protease blockers, concentration series – biochemical, fluorogenic peptide substrate, dose response (AID 1420). It counts as functional.

The target in data set [2] is Heat shock protein HSP 90-alpha (Homo sapiens, UniProt P07900). It counts as functional, organism-based.
The nature of data set [3]: Luminescence Cell-Based Dose Retest to Confirm Inhibitors of Cancer Stem Cells. [Related pubchem assays (depositor defined):AID2717, AID2721]. It counts as functional. The settings on record: Homo sapiens.
In another data set the target is Cytochrome P450 2C9 (Homo sapiens, UniProt P11712).
Sequence of Cytochrome P450 2C9 (P11712 whole entry): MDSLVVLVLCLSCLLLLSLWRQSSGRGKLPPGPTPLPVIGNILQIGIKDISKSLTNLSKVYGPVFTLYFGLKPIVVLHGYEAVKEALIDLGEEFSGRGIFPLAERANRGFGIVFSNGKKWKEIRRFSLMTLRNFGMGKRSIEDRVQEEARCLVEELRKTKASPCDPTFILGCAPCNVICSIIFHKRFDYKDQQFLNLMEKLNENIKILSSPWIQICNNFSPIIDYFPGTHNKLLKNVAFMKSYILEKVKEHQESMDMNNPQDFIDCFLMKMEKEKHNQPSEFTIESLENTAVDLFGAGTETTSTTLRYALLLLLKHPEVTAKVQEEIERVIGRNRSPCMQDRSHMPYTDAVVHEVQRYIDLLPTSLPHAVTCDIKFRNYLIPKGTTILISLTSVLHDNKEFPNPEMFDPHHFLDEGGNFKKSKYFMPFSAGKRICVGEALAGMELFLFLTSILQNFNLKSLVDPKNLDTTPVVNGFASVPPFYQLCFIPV
Data set [4] deals with T2, Replicative DNA helicase DnaB (Mycobacterium tuberculosis, UniProt P9WMR3).
T2 sequence (P9WMR3 whole entry): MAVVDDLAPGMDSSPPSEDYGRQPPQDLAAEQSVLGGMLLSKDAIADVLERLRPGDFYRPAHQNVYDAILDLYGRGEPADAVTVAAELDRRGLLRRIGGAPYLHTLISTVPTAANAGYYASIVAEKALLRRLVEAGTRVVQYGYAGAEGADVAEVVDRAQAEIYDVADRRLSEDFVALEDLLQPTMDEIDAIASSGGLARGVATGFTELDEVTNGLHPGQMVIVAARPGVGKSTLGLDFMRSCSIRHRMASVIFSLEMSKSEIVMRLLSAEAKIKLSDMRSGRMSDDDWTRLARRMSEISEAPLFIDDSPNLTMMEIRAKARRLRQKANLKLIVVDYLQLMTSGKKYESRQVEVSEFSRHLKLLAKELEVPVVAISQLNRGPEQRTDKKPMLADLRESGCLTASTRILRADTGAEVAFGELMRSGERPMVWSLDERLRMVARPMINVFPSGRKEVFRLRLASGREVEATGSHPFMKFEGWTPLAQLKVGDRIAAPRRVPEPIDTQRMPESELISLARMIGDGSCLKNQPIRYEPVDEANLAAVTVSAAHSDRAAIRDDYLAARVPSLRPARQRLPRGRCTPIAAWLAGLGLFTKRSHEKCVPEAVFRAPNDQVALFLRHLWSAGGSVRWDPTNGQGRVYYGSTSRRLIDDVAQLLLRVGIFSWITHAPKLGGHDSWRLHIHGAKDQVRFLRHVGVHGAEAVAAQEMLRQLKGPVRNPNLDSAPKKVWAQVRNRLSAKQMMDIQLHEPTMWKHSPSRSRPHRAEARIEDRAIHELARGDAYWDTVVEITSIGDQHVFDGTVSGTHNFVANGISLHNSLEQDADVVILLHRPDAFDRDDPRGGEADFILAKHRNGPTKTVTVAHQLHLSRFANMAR
In words: DnaB intein splicing inhibitors, dose response, biochemical, cell-free fluorescence (AID 449749). It counts as functional.

The next data set has as its target Cytochrome P450 2D6 (Homo sapiens, UniProt P10635).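 Also: CYP2D6 member of a cytochrome P450 panel assay.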
The next data set addresses T3, Protein RecA (Mycobacterium tuberculosis, UniProt P9WHJ3).
T3 sequence (P9WHJ3 whole entry): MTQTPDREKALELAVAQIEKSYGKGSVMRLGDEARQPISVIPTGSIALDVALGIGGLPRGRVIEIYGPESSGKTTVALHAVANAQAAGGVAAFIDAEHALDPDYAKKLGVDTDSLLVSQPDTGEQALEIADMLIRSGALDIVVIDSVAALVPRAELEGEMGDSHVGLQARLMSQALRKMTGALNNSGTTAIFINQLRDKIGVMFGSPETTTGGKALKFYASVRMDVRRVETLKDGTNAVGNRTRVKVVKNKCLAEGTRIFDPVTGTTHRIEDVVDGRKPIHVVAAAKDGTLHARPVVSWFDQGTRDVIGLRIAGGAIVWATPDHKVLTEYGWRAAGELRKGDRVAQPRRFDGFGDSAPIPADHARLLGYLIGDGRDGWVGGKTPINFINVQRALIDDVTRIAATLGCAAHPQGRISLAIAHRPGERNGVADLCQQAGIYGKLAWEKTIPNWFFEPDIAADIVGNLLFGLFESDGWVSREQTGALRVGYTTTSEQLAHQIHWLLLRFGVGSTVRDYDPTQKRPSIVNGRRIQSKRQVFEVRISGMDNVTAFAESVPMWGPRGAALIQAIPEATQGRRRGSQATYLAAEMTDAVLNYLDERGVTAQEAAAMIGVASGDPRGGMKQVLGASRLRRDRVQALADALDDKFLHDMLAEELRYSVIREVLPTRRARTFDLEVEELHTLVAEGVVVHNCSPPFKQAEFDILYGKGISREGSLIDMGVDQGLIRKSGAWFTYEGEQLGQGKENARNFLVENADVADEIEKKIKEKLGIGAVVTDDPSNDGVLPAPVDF
The data set is described as follows: Fluorescence Cell-Free Homogeneous Dose Retest to Identify Inhibitors of RecA-Intein Splicing Activity. [Related pubchem assays (depositor defined):AID2097, AID2223, AID489010, AID492950]. It is filed as functional.

The target of data set [5] is Peroxisome proliferator-activated receptor gamma/Nuclear receptor coactivator 2 (Homo sapiens, UniProt P37231). The data set is described as follows: TR-FRET dose response biochemical High Throughput Screening assay for agonists of the steroid receptor coactivator 2 (SRC-2) recruitment by the peroxisome proliferator-activated receptor gamma (PPAR gamma): non-selective agonists. [Related pubchem assays: 1297, 1032 ]. It is filed as functional. A general note: Time-resolved FRET reads energy transfer from a long-lived donor to a nearby acceptor.
Sequence of Peroxisome proliferator-activated receptor gamma/Nuclear receptor coactivator 2 (P37231 whole entry): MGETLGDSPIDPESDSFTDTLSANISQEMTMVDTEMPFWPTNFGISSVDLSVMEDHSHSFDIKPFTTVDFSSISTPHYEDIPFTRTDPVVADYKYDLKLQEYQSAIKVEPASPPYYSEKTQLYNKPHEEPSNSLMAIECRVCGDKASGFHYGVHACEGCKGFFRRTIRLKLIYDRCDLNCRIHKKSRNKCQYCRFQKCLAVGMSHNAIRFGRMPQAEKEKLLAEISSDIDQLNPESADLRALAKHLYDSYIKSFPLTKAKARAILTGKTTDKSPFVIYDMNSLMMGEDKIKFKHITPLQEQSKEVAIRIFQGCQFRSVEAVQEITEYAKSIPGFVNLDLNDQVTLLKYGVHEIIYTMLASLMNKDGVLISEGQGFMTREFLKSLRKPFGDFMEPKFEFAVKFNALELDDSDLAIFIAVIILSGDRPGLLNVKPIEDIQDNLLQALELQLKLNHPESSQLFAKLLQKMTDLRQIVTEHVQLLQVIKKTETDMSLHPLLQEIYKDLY
Sequence of Peroxisome proliferator-activated receptor gamma/Nuclear receptor coactivator 2 (Q15596 whole entry, further chain): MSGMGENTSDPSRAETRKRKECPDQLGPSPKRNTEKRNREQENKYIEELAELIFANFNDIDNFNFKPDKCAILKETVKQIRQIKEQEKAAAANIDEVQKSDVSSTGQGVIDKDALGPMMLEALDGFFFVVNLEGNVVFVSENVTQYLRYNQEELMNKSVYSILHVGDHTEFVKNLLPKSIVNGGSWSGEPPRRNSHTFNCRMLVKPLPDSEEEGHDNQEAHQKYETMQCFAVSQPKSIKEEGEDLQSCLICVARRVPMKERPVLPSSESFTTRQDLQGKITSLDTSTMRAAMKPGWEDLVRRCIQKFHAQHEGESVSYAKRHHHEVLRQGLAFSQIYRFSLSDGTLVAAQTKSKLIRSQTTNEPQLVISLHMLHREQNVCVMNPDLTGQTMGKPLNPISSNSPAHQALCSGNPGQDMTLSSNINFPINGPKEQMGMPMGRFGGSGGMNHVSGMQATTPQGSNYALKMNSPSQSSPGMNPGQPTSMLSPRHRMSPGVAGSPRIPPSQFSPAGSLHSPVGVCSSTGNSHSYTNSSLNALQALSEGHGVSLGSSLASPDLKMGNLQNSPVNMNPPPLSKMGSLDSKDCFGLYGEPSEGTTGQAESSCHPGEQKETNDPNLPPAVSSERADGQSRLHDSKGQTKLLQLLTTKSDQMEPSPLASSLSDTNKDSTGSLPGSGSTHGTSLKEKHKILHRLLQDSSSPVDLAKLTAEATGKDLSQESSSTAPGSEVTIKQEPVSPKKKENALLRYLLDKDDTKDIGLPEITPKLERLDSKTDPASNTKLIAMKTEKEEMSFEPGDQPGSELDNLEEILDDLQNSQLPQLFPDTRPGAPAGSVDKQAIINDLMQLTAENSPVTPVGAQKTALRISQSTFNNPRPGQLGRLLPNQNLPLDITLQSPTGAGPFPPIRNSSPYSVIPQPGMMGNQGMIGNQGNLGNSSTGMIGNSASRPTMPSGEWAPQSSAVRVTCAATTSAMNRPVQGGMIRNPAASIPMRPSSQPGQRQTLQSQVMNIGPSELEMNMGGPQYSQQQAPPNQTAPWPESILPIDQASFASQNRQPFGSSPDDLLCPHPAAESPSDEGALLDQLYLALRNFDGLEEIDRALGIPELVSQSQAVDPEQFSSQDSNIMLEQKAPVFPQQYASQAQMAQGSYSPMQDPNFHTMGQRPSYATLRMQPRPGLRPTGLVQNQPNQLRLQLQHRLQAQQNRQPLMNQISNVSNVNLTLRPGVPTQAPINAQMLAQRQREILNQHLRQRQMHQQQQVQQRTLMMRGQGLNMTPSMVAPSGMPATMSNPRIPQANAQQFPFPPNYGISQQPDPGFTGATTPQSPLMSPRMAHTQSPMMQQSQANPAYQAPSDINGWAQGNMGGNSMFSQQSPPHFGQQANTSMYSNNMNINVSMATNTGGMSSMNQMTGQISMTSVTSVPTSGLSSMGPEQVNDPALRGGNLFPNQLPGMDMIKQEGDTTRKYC

Data set [6] has as its target Peroxisome proliferator-activated receptor gamma/Nuclear receptor coactivator 1 (Homo sapiens, UniProt P37231). The data set is described as follows: TR-FRET dose response biochemical High Throughput Screening assay for agonists of the steroid receptor coactivator 1 (SRC-1) recruitment by the peroxisome proliferator-activated receptor gamma (PPAR gamma): non-selective agonists. [Related pubchem assays (depositor defined):AID1300, AID1808, AID504735, AID631]. It is filed as protein assay.

Data set [7] concerns the target Peroxisome proliferator-activated receptor gamma/Nuclear receptor coactivator 3 (Homo sapiens, UniProt P37231). The data set is described as follows: TR-FRET dose response biochemical High Throughput Screening assay for agonists of the steroid receptor coactivator 3 (SRC-3) recruitment by the peroxisome proliferator-activated receptor gamma (PPAR gamma): non-selective agonists. [Related pubchem assays: 1301 (Confirmation screen.), 1048 (Primary screen.)]. It counts as functional.

The next data set has as its target Cytochrome P450 2C19 (Homo sapiens, UniProt P33261). In words: Cytochrome panel assay with activity outcomes. Panel member name: p450-cyp2c19 Compounds with AC50 equal or less than 10 uM are considered active. It counts as functional. The settings on record: read-out: AC50.
Data set [8] concerns the target T4, Polyadenylate-binding protein 1 (Homo sapiens, UniProt P11940). The data set is described as follows: MLLE domain peptide-binding blockers, IC50 – biochemical, fluorescence polarization, FITC-PAM2 peptide, dose response (AID 602259). It counts as functional. The note with it: read-out: IC50_Mean. (In general: In fluorescence polarisation assays a small probe gives low polarisation when free and higher when bound to something large.)

For data set [9], the target named is T4, Polyadenylate-binding protein 1. The data set is described as follows: MLLE binding blockers, Cy5 peptide tracer – biochemical, fluorescence polarization, Cy5-PAM2 peptide, secondary, miRNA deadenylation inhibitor project, dose response (AID 602260). It counts as functional. The note with it: read-out: IC50_Mean.
For a further data set, the target named is T5, Cytochrome P450 1A2 (Homo sapiens, UniProt P05177).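 Also: PubChem cytochrome P450 panel assay, CYP1A2 panel member.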
T5 sequence (P05177 whole entry): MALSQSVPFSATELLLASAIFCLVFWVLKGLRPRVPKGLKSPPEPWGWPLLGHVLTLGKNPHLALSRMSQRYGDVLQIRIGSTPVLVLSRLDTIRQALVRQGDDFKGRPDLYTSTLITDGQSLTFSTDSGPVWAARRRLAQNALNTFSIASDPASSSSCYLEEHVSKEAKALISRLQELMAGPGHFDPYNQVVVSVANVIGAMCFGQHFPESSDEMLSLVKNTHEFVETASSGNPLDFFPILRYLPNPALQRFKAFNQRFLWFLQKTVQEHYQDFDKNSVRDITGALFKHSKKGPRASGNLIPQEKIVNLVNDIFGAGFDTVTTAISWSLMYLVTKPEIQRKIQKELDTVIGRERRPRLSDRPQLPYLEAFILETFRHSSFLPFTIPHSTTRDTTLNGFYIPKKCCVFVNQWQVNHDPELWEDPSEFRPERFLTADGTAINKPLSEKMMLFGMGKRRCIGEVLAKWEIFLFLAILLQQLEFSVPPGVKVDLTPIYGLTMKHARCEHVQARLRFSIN

The subject of data set [10] is Streptococcus sp. 'group A'. The data set is described as follows: Streptococcus pyogenes SK(-)GAS viability under kanamycin – luminescence, BacTiterGlo, confirmation, counter-screen for streptokinase expression inhibitor project, dose response (AID 1900). It is filed as functional, organism-based.
Data set [11] in a line: fluconazole-exposed Candida albicans growth modulators – fluorescence, retest, confirmation (AID 2467). It is filed as functional, cell-based.
The test system of a further data set is Streptococcus. The data set is described as follows: GAS UMAA2166 growth inhibition – luminescence, BacTiterGlo, counter-screen for streptokinase expression inhibitor project, dose response (AID 1915).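 Also: potency for reduction of bacterial viability or growth.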 It counts as functional, organism-based. Background: Counterscreens check selectivity or assay interference.
The nature of data set [12]: NIH-3T3 fibroblast cytotoxicity, dose response, cytotoxicity control, cell-based, fluorescence, Alamar Blue, secondary assay (AID 2327).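 Also: NIH-3T3 mouse fibroblasts cultured with fluconazole at 8 µg/mL.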 It is filed as functional.

Molecules are shown by their SMILES. Active and inactive are the calls of the source.

As usually defined, the AC50 is the concentration giving half of the maximal activity seen. A word on the EC50: it is the concentration at which the effect is half-maximal.

Sequence of Peroxisome proliferator-activated receptor gamma/Nuclear receptor coactivator 1 (P37231 whole entry): as the sequence (P37231 whole entry) above
Sequence of Peroxisome proliferator-activated receptor gamma/Nuclear receptor coactivator 1 (Q15788 whole entry, further chain): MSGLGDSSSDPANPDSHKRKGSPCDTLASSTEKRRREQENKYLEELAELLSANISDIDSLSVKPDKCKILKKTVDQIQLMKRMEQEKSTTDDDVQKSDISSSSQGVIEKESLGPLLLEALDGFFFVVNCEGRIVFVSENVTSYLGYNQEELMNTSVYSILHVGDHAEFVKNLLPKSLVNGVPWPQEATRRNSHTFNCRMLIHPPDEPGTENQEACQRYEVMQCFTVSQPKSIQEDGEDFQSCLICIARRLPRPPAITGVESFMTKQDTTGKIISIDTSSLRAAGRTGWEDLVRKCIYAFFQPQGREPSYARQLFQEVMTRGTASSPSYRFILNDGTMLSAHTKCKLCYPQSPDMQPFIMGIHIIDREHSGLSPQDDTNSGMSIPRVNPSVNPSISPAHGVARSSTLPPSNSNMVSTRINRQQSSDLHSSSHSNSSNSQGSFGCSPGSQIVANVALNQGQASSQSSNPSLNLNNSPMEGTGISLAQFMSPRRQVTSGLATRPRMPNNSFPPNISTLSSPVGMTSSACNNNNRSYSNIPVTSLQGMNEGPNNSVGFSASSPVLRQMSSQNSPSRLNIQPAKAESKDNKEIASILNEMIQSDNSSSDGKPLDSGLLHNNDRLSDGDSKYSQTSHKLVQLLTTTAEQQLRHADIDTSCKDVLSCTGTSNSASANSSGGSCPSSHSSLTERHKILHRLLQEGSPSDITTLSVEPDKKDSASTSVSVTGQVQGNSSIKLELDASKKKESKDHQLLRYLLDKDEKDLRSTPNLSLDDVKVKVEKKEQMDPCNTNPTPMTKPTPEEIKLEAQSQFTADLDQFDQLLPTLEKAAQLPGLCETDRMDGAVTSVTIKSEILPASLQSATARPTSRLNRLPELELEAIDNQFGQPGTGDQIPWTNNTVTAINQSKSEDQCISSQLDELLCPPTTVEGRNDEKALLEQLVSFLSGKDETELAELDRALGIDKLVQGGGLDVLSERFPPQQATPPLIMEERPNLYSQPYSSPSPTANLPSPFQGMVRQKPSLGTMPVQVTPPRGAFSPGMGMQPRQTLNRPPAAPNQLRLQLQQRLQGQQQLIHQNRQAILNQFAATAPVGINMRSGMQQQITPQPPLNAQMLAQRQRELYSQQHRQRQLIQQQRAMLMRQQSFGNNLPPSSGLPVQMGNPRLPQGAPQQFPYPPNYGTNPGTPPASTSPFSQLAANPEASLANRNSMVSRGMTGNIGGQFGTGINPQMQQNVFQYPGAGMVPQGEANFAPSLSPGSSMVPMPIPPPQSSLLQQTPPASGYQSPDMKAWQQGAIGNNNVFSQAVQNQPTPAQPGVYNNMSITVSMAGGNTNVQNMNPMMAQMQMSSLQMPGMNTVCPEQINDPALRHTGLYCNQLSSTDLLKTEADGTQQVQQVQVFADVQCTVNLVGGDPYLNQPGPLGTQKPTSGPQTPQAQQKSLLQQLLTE
Sequence of Cytochrome P450 2D6 (P10635 whole entry): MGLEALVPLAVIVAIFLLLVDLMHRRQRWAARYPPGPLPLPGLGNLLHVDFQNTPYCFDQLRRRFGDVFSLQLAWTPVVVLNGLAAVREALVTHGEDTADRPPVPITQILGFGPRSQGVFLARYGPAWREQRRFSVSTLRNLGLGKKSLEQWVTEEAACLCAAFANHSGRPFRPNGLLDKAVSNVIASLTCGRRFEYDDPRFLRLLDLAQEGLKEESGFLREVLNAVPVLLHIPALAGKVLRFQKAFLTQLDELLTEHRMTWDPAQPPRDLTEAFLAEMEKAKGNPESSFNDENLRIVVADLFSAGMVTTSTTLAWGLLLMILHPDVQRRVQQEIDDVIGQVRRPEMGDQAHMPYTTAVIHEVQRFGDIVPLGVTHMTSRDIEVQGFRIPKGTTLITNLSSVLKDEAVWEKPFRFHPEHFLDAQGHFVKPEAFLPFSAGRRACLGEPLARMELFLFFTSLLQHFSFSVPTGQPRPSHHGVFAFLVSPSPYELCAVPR

Turning to `O=C(Nc1nc(-c2ccc(Cl)cc2)cs1)C1CCCO1` (centres undefined), the IC50 in data set [1] is reported as 19.1 µM (not active).

With `Cc1cc(NC(=O)CSc2nnc(-c3ccncc3)n2N)ccc1Br`, in data set [1], the IC50 is > 50 µM (not active).

Take `COc1ccc2sc(-c3ccccc3OC)c(-c3ccc(O)cc3)c2c1`: the AC50 in [2] is 5.35 µM (active); in data set [3], 4.27 µM (active).

As for `COc1ccc(NC(=O)c2ccc(=O)oc2)cc1`, in [1], the IC50 was 11.5 µM (not active).

With `O=c1oc2cc(Oc3c([N+](=O)[O-])cc(C(F)(F)F)cc3[N+](=O)[O-])ccc2c2c1CCCC2`, the values for the AC50 entry (on Cytochrome P450 2C9; in data set [4]; on Cytochrome P450 2D6) were “inconclusive”, > 380 µM (inactive) and 11.2 µM (inconclusive), respectively. Also, the EC50 on Protein RecA was 1.55 µM (active).

Consider `CCOc1ccc(N2C(=O)/C(=C\c3ccccc3OC)S(=O)(=O)C2c2cccc([N+](=O)[O-])c2)cc1` (centres undefined), for which the AC50 in data set [2] is 26.2 µM (active).

`Cc1ccc(OCCCn2c(=O)sc3ccccc32)cc1`: the values for the AC50 result on Cytochrome P450 2C9 and at Cytochrome P450 2D6 were “inconclusive” and 14.1 µM (inconclusive), respectively.

`O=C(CCOc1ccccc1)Nc1ccc(S(=O)(=O)N2CCCC2)cc1`: in [1], the IC50 was 26.4 µM (not active).

Regarding `COCC(=O)n1nc(NCc2ccc(OC)cc2)nc1NCc1ccc(OC)cc1`, the AC50 in data set [2] is 8.12 µM (active).

Turning to `COc1ccc(CNC(=O)CSc2cc(=O)n(C)c3ccccc23)cc1`, the EC50 was > 79.4 µM (not active) in data set [5], > 79.4 µM (inactive) in [6] and > 79.4 µM (not active) in data set [7].

In the case of `O=C(Nc1ccc(N=Nc2ccccc2)cc1)c1ccc(Cl)cc1Cl`, the results for the AC50 result at Cytochrome P450 2C9 and on Cytochrome P450 2C19 were “inconclusive” and 39.8 µM (inconclusive), respectively.

As for `CCN(CC)S(=O)(=O)c1ccc(C(=O)NCc2ccc3c(c2)cc(C)n3C)cc1`, the IC50 in data set [8] and in data set [9] was > 66 µM (inactive) in each case. Also, the EC50 was 6.71 µM (active) in [5], 6.6 µM (active) in data set [6] and 15.3 µM (not active) in data set [7].

Consider `Cc1c(Br)cc(C(=O)NC2CCCCC2)c(C)c1C`, for which the AC50 result at Cytochrome P450 2C9 is “inconclusive”; at Cytochrome P450 1A2, 3.55 µM (inconclusive).

As for `O=C(COC(=O)CCc1ccccc1)NC12CC3CC(CC(C3)C1)C2`, the IC50 in data set [1] is recorded as 19.6 µM (not active).

In the case of `Cc1cccc(C)c1OCC(=O)NNC(=S)NC(=O)C1CC1`, the 50% effective concentration (EC50) in data set [10] is 0.412 µM (active); in data set [11] it was 1.66 µM (active); in the data set on Streptococcus it was 7.38 µM (active); in data set [12] it was > 160 µM (inactive). For the same compound, the concentration at half-maximal activity (AC50) in [2] was 1.15 µM (active).

Regarding `CC1=CC=CN2CC(O)CN=C12.Cl` (centres undefined), the concentration at half-maximal activity (AC50) result on Cytochrome P450 2C9 is “inconclusive”.

As for `COCCCn1c(=S)[nH]c2sc3c(c2c1=O)CCCS3`, the concentration giving a half-maximal response (EC50) was 26.7 µM (not active) in [5], 66.8 µM (inactive) in [6] and > 79.4 µM (not active) in [7].

For the compound `O=C(Cc1ccccc1)Nc1nnc(-c2ccco2)s1`, the 50% effective concentration (EC50) in data set [5] is > 79.4 µM (not active); in data set [6], > 79.4 µM (inactive); in data set [7] it was > 79.4 µM (not active).

`COC(=O)c1ccc(N2C(=O)C3CC(C)=C(C)CC3C2=O)cc1` (centres undefined): the IC50 in data set [1] was 10.9 µM (not active).

For the compound `COc1ccc(C2=NN(C(=N)S)C(c3ccccc3)C2)cc1` (centres undefined), the EC50 in [5] is 8.07 µM (active); in [6], 8.24 µM (active); in data set [7], > 79.4 µM (not active).

Regarding `O=C/C(=N\Nc1ccccc1)C(=O)c1ccc(Cl)cc1`, the concentration at half-maximal activity (AC50) in data set [2] is 3.15 µM (active).
